Experimental data as given in US20040033263A1, “Reduced formate poly(alkylene oxides) with secondary amines for reducing impurity formation” (priority 2002, published 2004).

Key:
[1] = cited from earlier work
[2] = Stability of reboxetine methanesulfonate in the presence of traditional poly(alkylene oxide) polymers; format: physicochemical
Text: Substantial levels of various impurities are formed, which increase in concentration over time. The predominant impurity that is formed is the n-formyl species of reboxetine methanesulfonate, known as n-formyl reboxetine.
Poly(alkylene oxide) polymer consists of long chains of the polymer. Irradiation and oxidation cause these chains to be cleaved, leaving inorganic and organic formates at the ends of the chains. As more cleaving occurs, there are higher levels of formates present.

stability in the presence of traditional poly(alkylene oxide) polymer subjected to irradiation processes or oxidation [2] | stability in the presence of traditional polyethylene oxides [2] | Compound | Pka [1]
 |  | C/C(=C/C(=O)O)C(=O)O [citraconic acid] | 2.48
 |  | F [hydrofluoric acid] | 3.14
substantially less stable | unstable | CCOc1ccccc1OC(c1ccccc1)C1CNCCO1.CS(=O)(=O)O (centres unmarked) [reboxetine methanesulfonate] | 
 |  | O=S(O)(O)=S [thiosurfuric acid] | 2.00
